Data on 1 molecule can be found in BindingDB's records for patent US11530198 (Vyera Pharmaceuticals, 2022).

The target of one test is T1, Dihydrofolate reductase (Homo sapiens, UniProt P00374).
T1 sequence (P00374 whole entry): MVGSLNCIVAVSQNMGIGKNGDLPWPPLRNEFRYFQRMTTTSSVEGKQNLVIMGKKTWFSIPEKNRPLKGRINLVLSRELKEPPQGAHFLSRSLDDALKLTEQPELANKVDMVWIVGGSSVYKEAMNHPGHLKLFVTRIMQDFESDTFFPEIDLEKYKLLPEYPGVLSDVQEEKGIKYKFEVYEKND
The test can be described thus: Not found.

In test [1] the target is Bifunctional dihydrofolate reductase-thymidylate synthase (Leishmania major, UniProt P07382). As to the kind of experiment: Not found.

Structures are written as SMILES.

What is called IC50 is the point on the concentration scale where inhibition reaches its midpoint. Higher therefore signals a need for much substance.

Bifunctional dihydrofolate reductase-thymidylate synthase, sequence (P07382 whole entry): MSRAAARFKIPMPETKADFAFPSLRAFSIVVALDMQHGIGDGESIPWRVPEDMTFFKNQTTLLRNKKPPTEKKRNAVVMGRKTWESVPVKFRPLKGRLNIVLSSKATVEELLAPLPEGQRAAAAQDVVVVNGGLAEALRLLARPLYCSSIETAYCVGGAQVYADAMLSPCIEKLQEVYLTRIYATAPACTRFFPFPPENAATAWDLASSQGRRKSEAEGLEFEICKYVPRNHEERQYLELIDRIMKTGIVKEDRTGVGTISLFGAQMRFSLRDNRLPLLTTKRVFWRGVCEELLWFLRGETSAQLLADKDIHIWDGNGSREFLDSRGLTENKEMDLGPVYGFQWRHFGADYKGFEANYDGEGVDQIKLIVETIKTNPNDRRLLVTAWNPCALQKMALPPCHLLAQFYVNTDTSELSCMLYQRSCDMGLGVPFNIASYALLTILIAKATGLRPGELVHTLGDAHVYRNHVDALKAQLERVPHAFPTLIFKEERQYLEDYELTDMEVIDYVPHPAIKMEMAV

As for `Nc1ncc(N2CCN(c3ccccc3-c3ccccc3)CC2)c(N)n1` [US11530198, Example 12], the figures for the IC50 (on Dihydrofolate reductase; in test [1]) were 214 nM and 7.41 nM, respectively.
